Reference: patent publication US11434212B2, “Bicyclic compound as a caspase inhibitor” (CHIA TAI TIANQING PHARMACEUTICAL GROUP CO., LTD., priority 2017, dated 2022)
“Also recorded” adds a separate entry of the source.

What was measured:
[1] = Mouse pharmacokinetic study in plasma and liver after oral administration; assay type: in vivo, male C57BL/6J mice; conditions: for concentration at 0.5 h / concentration at 2 h / concentration at 6 h: male, C57BL/6J, plasma, read-out: Plasma drug concentration; for liver drug-time curve (area) / plasma drug-time curve (area): 0.5-6 h samples
Description: This experiment intended to investigate the pharmacokinetics in plasma and liver of male C57BL/6J mice after oral administration of the compounds.
Mice were randomly divided into three groups (3 male mice per group). The compound was formulated into the specified formulation. Oral formulations may be clear or uniform suspensions. Animals were intragastrically administered with a given dose of the preparation, respectively.
Whole blood samples were collected from animals through jugular vein puncture at 3 time points of 30 minutes, 2 hours, and 6 hours after administration, approximately 25 μL per sample; while the liver was collected at each time point.
The plasma samples were added to centrifuge tubes containing anticoagulant, and centrifuged at 4° C., 3000 g for 15 min, and the supernatant plasma was taken and quickly frozen on dry ice and then stored in a refrigerator at −70±10° C. until LC-MS/MS analysis was performed.
The blood outside the liver was sopped up with absorbent paper, and the weight of the liver was weighed, and then placed in liquid nitrogen to freeze. MeOH/15 mM PBS (1:2) at a volume-weight ratio of 1:5 was added thereto, and then the homogenization was performed at 14000 rpm for 2 minutes. It was then stored in a refrigerator at −70±10° C. until LC-MS/MS analysis was performed.
The plasma drug concentration data for the compounds were processed with the non-compartment model using WinNonlin™ Version 6.3.0 (Pharsight, Mountain View, Calif.) pharmacokinetic software. The maximal concentration (Cmax), maximal concentration time (Tmax) and quantitative end time were directly obtained from the plasma concentration-time chart.
The following pharmacokinetic parameters were calculated by using logarithmic linear trapezoidal method: elimination phase half-life (T1/2); the in vivo mean residence time of the drug from point 0 to the last time point (MRT0-last); the in vivo mean residence time of the drug from point 0 to infinite time (MRT0-ifn); the area under time-plasma concentration curve from point 0 to the last time point (AUC0-last); the area under time-plasma concentration curve from point 0 to infinite time (AUC0-inf).
For individual plasma concentrations less than BQL, the one occurred before Tmax was calculated as 0, and the one occurred after Tmax was directly excluded. All parameters and ratios were reported in the forms of three significant digits.
The pharmacokinetic parameters of this experiment were calculated according to the theoretical blood collection times and the theoretical administration concentrations in the protocol. The deviations between the actual administration concentrations and the theoretical concentrations were within the range of ±20%. The deviations between the actual blood collection times and the theoretical blood collection times were in conformity with the relevant SOP (the points within 1 hour after administration were within the range of ±1 min, and the others were within 5% of the theoretical time).

[2] = system: CCl4-induced chronic liver fibrosis model; assay: Pharmacodynamic study in CCl4-induced chronic liver fibrosis model; assay type: in vivo, male C57BL/6 mice; parameters: Total score of liver injury / Ballooning change score: scale not given here; conditions: for Ballooning change score / Inflammatory cell infiltration / Percentage of liver fibrosis / Total score of liver injury: p.o., bid, 28 days, mean ± sem; for Effect on CCl4-induced liver tissue damage (in words) / Inhibitory effect on liver fibrosis (in words): different doses, oral twice a day for 28 days, vs model group
Description: The therapeutic effects of the test compound IDN-6556 and the compound of Example 1 in the CCl4-induced chronic liver fibrosis model of male C57BL/6 mice were tested.
Male C57BL/6 mice were randomly divided into 7 groups: pseudo model group (group 1), model group (group 2, solvent p.o., q.d), IDN-6556 (group 3, 3 mg/kg, p.o., bid), IDN-6556 (group 4, 10 mg/kg, p.o., bid), Example 1 (group 5, 3 mg/kg, p.o., bid), Example 1 (group 6, 10 mg/kg, p.o., bid)), Example 1 (group 7, 20 mg/kg, p.o., bid). CCl4 was formulated into a CCl4-olive oil mixed solution according to the doses by using olive oil, modeling is performed by orally administration three times a week for 4 weeks; and the pseudo model group was orally administered with the same volume of olive oil alone. Compounds were orally administrated from the day of modeling, twice a day for 28 days, while the pseudo model group and the model group were orally administered with an equal volume of drug solvent. On the next day after the last administration, the animals were fasted for 6 hours, followed by euthanizing, and the livers were collected. Liver tissues were fixed in 10% formalin solution for histopathological analysis.

[3] = 0.5 h after oral (intragastric) administration
[4] = 2 h after oral (intragastric) administration
[5] = 6 h after oral (intragastric) administration

Liver drug concentration [1, 3] [nmol/kg]	Liver drug concentration [1, 4] [nmol/kg]	Liver drug concentration [1, 5] [nmol/kg]	concentration at 0.5 h [1, 3] [nM]	concentration at 2 h [1, 4] [nM]	concentration at 6 h [1, 5] [nM]	liver drug-time curve (area) ([1]; oral administration) [µM·h]	plasma drug-time curve (area) ([1]; oral administration) [µM·h]	Structure (SMILES)	Ballooning change score ([2]; 3 mg/kg)	Inflammatory cell infiltration ([2]; 3 mg/kg)	Percentage of liver fibrosis ([2]; 3 mg/kg)	Total score of liver injury ([2]; 3 mg/kg)	Ballooning change score ([2]; 10 mg/kg)	Percentage of liver fibrosis ([2]; 10 mg/kg)	Total score of liver injury ([2]; 10 mg/kg)	Effect on CCl4-induced liver tissue damage (in words) [2]	Inhibitory effect on liver fibrosis (in words) [2]	further results
8600	930	230	435	10.9	5.79	9.347	0.314	C[C@H](NC(=O)C(=O)Nc1ccccc1C(C)(C)C)C(=O)N[C@@H](CC(=O)O)C(=O)COc1c(F)c(F)cc(F)c1F [IDN-6556, reference compound]	0.05 ± 0.04	1.55 ± 0.06	1.84 ± 0.07%	1.60 ± 0.07	0.08 ± 0.04	1.86 ± 0.12%	1.43 ± 0.12	significantly inhibit	no clear inhibitory effect	Effect on CCl4-induced liver tissue damage (in words) ([2]; listed as IND-6556): significantly improve
46440	3126	3252	2520	112	12.8	48.442	1.795	C[C@H](NC(=O)c1cc(-c2ccccc2Cl)on1)C(=O)N[C@@H](CC(=O)O)C(=O)COc1c(F)c(F)cc(F)c1F [Example 1, (S)-3-((S)-2-(5-(2-chlorophenyl)isoxazol-3-carboxamido)propionamido)-4-oxo-5-(2,3,5,6-tetrafluorophenoxy)pentanoic Acid]	0.00 ± 0.00	1.13 ± 0.06	1.61 ± 0.05^$$ %	1.13 ± 0.06	0.00 ± 0.00	1.62 ± 0.07^$ %	1.20 ± 0.07	significantly improve; also recorded: significantly inhibit	significantly inhibited; also recorded: significant inhibitory effect	Liver exposure compared to IDN-6556 ([1]; oral administration): about 5 times; Inflammatory cell infiltration ([2]; 10 mg/kg): 1.15 ± 0.07; Ballooning change score ([2]; 20 mg/kg): 0.00 ± 0.00; Inflammatory cell infiltration ([2]; 20 mg/kg): 1.10 ± 0.04; Percentage of liver fibrosis ([2]; 20 mg/kg): 1.69 ± 0.10%; Total score of liver injury ([2]; 20 mg/kg): 1.12 ± 0.04
